Data set [1] deals with T1, hERG1a (homomeric hERG channel, IhERG) (Homo sapiens, UniProt Q12809).
T1 construct: gene KCNH2

The target of data set [2] is T2, hERG1a/1b (heteromeric hERG channel, IhERG) (Homo sapiens, UniProt Q12809).
T2 construct: gene KCNH2

In data set [3] the target is T2, hERG1a/1b (heteromeric hERG channel, IhERG). The data set can be described thus: whole-cell patch clamp, tail current.
Data set [4] addresses T1, hERG1a (homomeric hERG channel, IhERG). Nature of the data set: whole-cell patch clamp, tail current. Background: Patch clamp records ionic current or voltage across a cell membrane.

Two molecules from publication PMC7647070, “Mechanisms of QT prolongation by buprenorphine cannot be explained by direct hERG channel block” (PLoS ONE, 2020) can be followed below.

Read-outs that look alike come from different tables or passages of the source.

T1 sequence (Q12809 whole entry): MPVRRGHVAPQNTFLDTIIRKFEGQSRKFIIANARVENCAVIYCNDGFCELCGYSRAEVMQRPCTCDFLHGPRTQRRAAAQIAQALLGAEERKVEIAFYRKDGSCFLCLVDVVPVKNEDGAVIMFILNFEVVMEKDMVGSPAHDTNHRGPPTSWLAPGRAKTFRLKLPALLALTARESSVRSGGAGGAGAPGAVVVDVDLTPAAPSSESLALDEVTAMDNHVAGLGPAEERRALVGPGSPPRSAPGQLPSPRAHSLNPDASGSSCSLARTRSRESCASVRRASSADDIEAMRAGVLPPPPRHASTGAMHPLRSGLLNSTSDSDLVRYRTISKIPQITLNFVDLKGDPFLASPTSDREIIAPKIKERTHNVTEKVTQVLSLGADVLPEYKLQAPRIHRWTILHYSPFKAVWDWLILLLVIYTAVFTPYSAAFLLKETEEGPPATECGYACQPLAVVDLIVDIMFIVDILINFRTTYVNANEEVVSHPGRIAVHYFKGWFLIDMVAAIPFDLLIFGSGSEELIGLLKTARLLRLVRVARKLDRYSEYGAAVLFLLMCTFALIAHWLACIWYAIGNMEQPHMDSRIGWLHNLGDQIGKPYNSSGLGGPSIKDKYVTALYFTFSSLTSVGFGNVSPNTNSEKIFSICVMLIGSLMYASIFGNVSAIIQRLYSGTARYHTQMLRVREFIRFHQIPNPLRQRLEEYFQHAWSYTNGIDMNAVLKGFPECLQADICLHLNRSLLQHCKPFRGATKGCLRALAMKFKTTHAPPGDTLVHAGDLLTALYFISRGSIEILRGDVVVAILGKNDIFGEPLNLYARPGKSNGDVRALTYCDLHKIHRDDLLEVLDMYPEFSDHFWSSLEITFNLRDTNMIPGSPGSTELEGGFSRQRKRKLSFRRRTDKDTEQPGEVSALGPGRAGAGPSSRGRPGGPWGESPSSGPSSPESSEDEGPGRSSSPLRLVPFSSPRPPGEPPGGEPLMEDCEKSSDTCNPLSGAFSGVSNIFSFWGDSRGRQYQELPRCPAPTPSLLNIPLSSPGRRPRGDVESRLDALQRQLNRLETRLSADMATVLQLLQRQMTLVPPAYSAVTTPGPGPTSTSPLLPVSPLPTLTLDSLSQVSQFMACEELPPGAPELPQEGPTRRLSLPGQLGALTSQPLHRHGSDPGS
T2 sequence (Q12809 whole entry): as above
T2 sequence (Q12809 377-1159 limits assumed): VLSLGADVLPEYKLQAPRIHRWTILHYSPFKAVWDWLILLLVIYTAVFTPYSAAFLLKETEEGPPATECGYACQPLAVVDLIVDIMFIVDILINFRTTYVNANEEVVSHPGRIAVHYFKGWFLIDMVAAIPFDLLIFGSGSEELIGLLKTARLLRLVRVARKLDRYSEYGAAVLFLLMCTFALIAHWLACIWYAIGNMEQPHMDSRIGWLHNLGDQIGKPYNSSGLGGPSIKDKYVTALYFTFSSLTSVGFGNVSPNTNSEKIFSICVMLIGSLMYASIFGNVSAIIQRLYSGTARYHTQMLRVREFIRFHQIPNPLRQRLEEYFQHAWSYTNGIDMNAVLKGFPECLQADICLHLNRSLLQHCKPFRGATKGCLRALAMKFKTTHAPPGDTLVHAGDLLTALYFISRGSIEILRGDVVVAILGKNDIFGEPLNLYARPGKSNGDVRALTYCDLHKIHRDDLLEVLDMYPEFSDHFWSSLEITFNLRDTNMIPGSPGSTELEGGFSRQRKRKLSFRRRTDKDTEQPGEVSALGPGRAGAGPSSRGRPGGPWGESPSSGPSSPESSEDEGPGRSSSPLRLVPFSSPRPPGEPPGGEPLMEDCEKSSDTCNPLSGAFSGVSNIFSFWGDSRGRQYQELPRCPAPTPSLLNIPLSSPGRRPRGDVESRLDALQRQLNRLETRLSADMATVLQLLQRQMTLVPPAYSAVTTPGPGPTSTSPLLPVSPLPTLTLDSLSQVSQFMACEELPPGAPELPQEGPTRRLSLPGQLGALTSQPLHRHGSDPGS

Take `CO[C@]12CC[C@@]3(C[C@@H]1[C@](C)(O)C(C)(C)C)[C@H]1Cc4ccc(O)c5c4[C@@]3(CCN1CC1CC1)[C@H]2O5` [Buprenorphine]: the IC50 came out at 8.7 ± 0.4 µM in data set [1] and 6.9 ± 0.9 µM in data set [2].

As for `O=C1CC[C@@]2(O)[C@H]3Cc4ccc(O)c5c4[C@@]2(CCN3CC2CC2)[C@H]1O5` [Naltrexone], the IC50 in data set [3] was 32.3 ± 8.6 µM; in data set [4] it was 31.1 ± 5.4 µM.

In general, IC50 refers to the concentration that inhibits the measured activity by half. A lower IC50 goes with higher potency.
